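Dose response: 5 concentrations. Exposure: 48 h. Format: 96-well plates. Endpoint: linear interpolation; highest concentration if not reached. The concentration for 50% growth inhibition is given as GI50.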 Activity calls are given as the source filed them. No stated cut-off is given here; in the data, active = GI50 up to about 1.1 µM and inactive = higher. Where only a bound is given, the exact number is not on record here.

Test systems include NCI-H23; PC-3; HCT-116; U-251; NCI-H460; SK-MEL-28; MDA-MB-231; BT-549; OVCAR-8; LOX IMVI; NCI/ADR-RES; CCRF-CEM; SNB-19; Malme-3M; ACHN; SK-MEL-2; SN12C; Hs-578T; HOP-92; HCC 2998.
Assay in all cases: DTP human tumour cell line panel, 48 h

Broadly, the GI50 is the concentration that inhibits growth by half. For the molecule `Cn1cnc([N+](=O)[O-])c1Sc1nc(N)nc2c1ncn2Cc1ccccc1`, the GI50 with NCI-H23 is 19.2 µM (inactive); in the assay on PC-3, 11.6 µM (inactive); with HCT-116, 20.7 µM (inactive); in the assay on U-251 it was 21.8 µM (inactive); with NCI-H460, 17.8 µM (inactive); in the assay with SK-MEL-28 it was 20.5 µM (inactive). Moreover, the GI50 with MDA-MB-231 was 19.7 µM (inactive); in the assay with BT-549, 22.1 µM (inactive); in the assay with OVCAR-8, 18.1 µM (inactive); in the assay on LOX IMVI, 19.6 µM (inactive); in the assay with NCI/ADR-RES, 51.9 µM (inactive); in the assay with CCRF-CEM, 13.9 µM (inactive). Also, the GI50 with SNB-19 is 42.7 µM (inactive); in the assay on Malme-3M, 13.2 µM (inactive); with ACHN, 15.3 µM (inactive); in the assay with SK-MEL-2 it was 15.8 µM (inactive); in the assay with SN12C it was 15.8 µM (inactive); in the assay on Hs-578T, 20.5 µM (inactive). Further, the GI50 in the assay with HOP-92 was 12 µM (inactive); in the assay on HCC 2998, 15.9 µM (inactive).

Take `COc1cccc(NC(=O)CC(=O)N2N=C(C)C(/N=N\c3ccc(S(=O)(=O)c4ccc(/N=N/C5C(=O)N(C(=O)CC(=O)Nc6cccc(OC)c6)N=C5C)cc4)cc3)C2=O)c1` (stereo not given): the GI50 with NCI-H23, in the assay on PC-3, in the assay with HCT-116, in the assay with U-251, with NCI-H460 and in the assay on SK-MEL-28 was > 100 µM (inactive) in each case. Moreover, the GI50 with MDA-MB-231, with BT-549, with OVCAR-8, in the assay with LOX IMVI, in the assay on NCI/ADR-RES and in the assay with CCRF-CEM was > 100 µM (inactive) in each case. The GI50 was > 100 µM (inactive) in the assay with SNB-19; 58.9 µM (inactive) in the assay with Malme-3M; > 100 µM (inactive) in the assay with ACHN; > 100 µM (inactive) in the assay on SK-MEL-2; > 100 µM (inactive) in the assay with SN12C; > 100 µM (inactive) in the assay on Hs-578T. In addition, the GI50 with HOP-92 and with HCC 2998 was > 100 µM (inactive) throughout.

Take `CN(C)CCNC1=CC(=O)c2nc3ccccc3c3ccnc1c23`: the GI50 with NCI-H23 is 5.56 µM (inactive); in the assay on PC-3, 3.36 µM (inactive); with HCT-116 it was 2.88 µM (inactive); in the assay with U-251, 8.26 µM (inactive); in the assay on NCI-H460, 2.39 µM (inactive); in the assay with SK-MEL-28 it was 11.4 µM (inactive). Besides, the GI50 was 3.63 µM (inactive) in the assay with MDA-MB-231; 7.26 µM (inactive) in the assay with BT-549; 4.36 µM (inactive) in the assay on OVCAR-8; 2.04 µM (inactive) in the assay with LOX IMVI; 4.13 µM (inactive) in the assay on NCI/ADR-RES; 3.88 µM (inactive) in the assay with CCRF-CEM. The GI50 in the assay on SNB-19 was 5.01 µM (inactive); with Malme-3M, 3 µM (inactive); with ACHN it was 3.05 µM (inactive); in the assay on SK-MEL-2 it was 7.38 µM (inactive); in the assay with SN12C, 6.49 µM (inactive); with Hs-578T, 4.95 µM (inactive). Besides, the results for the GI50 in the assay with HOP-92 and with HCC 2998 were 11.7 µM (inactive) and 4.47 µM (inactive), respectively.

Consider `Cc1cc2nc(C=C(C(F)(F)F)C(F)(F)F)oc2cc1C`, for which the GI50 in the assay with NCI-H23 was 2.49 µM (inactive); in the assay with PC-3 it was 2.47 µM (inactive); in the assay on HCT-116, 1.38 µM (inactive); in the assay on U-251, 3.33 µM (inactive); in the assay with NCI-H460, 3.92 µM (inactive); with SK-MEL-28, > 10 µM (inactive). In addition, the GI50 with MDA-MB-231 is 2.88 µM (inactive); with BT-549, 2.67 µM (inactive); in the assay on OVCAR-8, 2.46 µM (inactive); in the assay on LOX IMVI, 2.09 µM (inactive); in the assay on NCI/ADR-RES it was 2.51 µM (inactive); with CCRF-CEM it was 1.06 µM (active). Also, the GI50 in the assay with SNB-19 is 3.45 µM (inactive); in the assay on Malme-3M, 1.97 µM (inactive); in the assay with ACHN, 5.06 µM (inactive); with SK-MEL-2 it was > 10 µM (inactive); in the assay with SN12C it was 2.41 µM (inactive); in the assay on Hs-578T, 3.37 µM (inactive). The GI50 with HOP-92 was > 10 µM (inactive); with HCC 2998 it was 3.08 µM (inactive).

With `COc1cc(/C=C/C(=N\NS(=O)(=O)c2ccc(C)cc2)c2sc(NNC(C)=O)nc2C)ccc1O`, the GI50 with NCI-H23, with PC-3, in the assay on HCT-116, with U-251, in the assay on NCI-H460 and in the assay on SK-MEL-28 was > 100 µM (inactive) throughout. Further, the GI50 in the assay on MDA-MB-231 was 69.2 µM (inactive); in the assay with BT-549, > 100 µM (inactive); in the assay on OVCAR-8 it was > 100 µM (inactive); with LOX IMVI it was > 100 µM (inactive); in the assay on NCI/ADR-RES, > 100 µM (inactive); with CCRF-CEM, > 100 µM (inactive). Also, the GI50 with SNB-19, in the assay with Malme-3M, in the assay with ACHN, in the assay on SK-MEL-2, in the assay with SN12C and in the assay with Hs-578T was > 100 µM (inactive) throughout. In addition, the GI50 in the assay with HOP-92 and in the assay with HCC 2998 was > 100 µM (inactive) each time.

Turning to `N/C(=N\Nc1ccc(Cl)cc1)c1cnccn1`, the GI50 in the assay with NCI-H23 was > 100 µM (inactive); in the assay with PC-3, 54.7 µM (inactive); in the assay with HCT-116 it was 22.4 µM (inactive); with U-251, > 100 µM (inactive); in the assay with NCI-H460 it was 37.2 µM (inactive); with SK-MEL-28 it was 73.6 µM (inactive). In addition, the GI50 is > 100 µM (inactive) with MDA-MB-231; > 100 µM (inactive) in the assay on BT-549; > 100 µM (inactive) in the assay on OVCAR-8; 84.1 µM (inactive) with LOX IMVI; 44 µM (inactive) in the assay on NCI/ADR-RES; 28.6 µM (inactive) in the assay on CCRF-CEM. In addition, the GI50 in the assay with SNB-19 was > 100 µM (inactive); with Malme-3M, 95.9 µM (inactive); in the assay on ACHN, > 100 µM (inactive); in the assay with SK-MEL-2, 58.1 µM (inactive); in the assay on SN12C, > 100 µM (inactive); with Hs-578T, > 100 µM (inactive). The GI50 in the assay with HOP-92 is > 100 µM (inactive); in the assay on HCC 2998, 22.9 µM (inactive).

For the molecule `NCCSS(=O)(=O)CCN`, the GI50 with NCI-H23, in the assay with PC-3, in the assay with HCT-116, in the assay with U-251, in the assay with NCI-H460 and in the assay with SK-MEL-28 was > 100 µM (inactive) in each case. Further, the GI50 with MDA-MB-231, with BT-549, with OVCAR-8, in the assay with LOX IMVI, in the assay on NCI/ADR-RES and with CCRF-CEM was > 100 µM (inactive) in each case. In addition, the GI50 in the assay on SNB-19, in the assay with Malme-3M, with ACHN, in the assay on SK-MEL-2, with SN12C and in the assay on Hs-578T was > 100 µM (inactive) in each case. Further, the GI50 in the assay on HOP-92 and with HCC 2998 was > 100 µM (inactive) each time.

On to `Oc1ccc(/C=C\c2nnc(/C=C\c3ccc(O)c(O)c3)s2)cc1O`, for which the GI50 with NCI-H23 is 3.34 µM (inactive); in the assay with PC-3, 8.97 µM (inactive); with HCT-116, 3.26 µM (inactive); with U-251 it was 4.07 µM (inactive); with NCI-H460 it was 4.07 µM (inactive); in the assay on SK-MEL-28, 7.45 µM (inactive). The GI50 in the assay on MDA-MB-231 is 20 µM (inactive); in the assay on BT-549, 7.19 µM (inactive); with OVCAR-8 it was 4.56 µM (inactive); with LOX IMVI, 5.46 µM (inactive); with NCI/ADR-RES, 7.67 µM (inactive); in the assay with CCRF-CEM, 0.179 µM (active). Further, the GI50 with SNB-19 is 6.07 µM (inactive); in the assay on Malme-3M, 2.03 µM (inactive); with ACHN, 3.69 µM (inactive); in the assay on SK-MEL-2 it was 11.7 µM (inactive); in the assay with SN12C it was 5.98 µM (inactive); in the assay on Hs-578T, 3.73 µM (inactive). Moreover, the GI50 with HOP-92 is 5.07 µM (inactive); in the assay on HCC 2998, 8.32 µM (inactive).

On to `CSC(=Nc1nnc(-c2ccc([N+](=O)[O-])cc2)s1)SC`, for which the GI50 in the assay with NCI-H23 is 27.8 µM (inactive); in the assay with PC-3, > 41.9 µM (inactive); in the assay with HCT-116 it was 27.4 µM (inactive); with U-251 it was 21.4 µM (inactive); in the assay with NCI-H460 it was > 89.1 µM (inactive); in the assay with SK-MEL-28 it was 77.4 µM (inactive). The GI50 in the assay on MDA-MB-231 was > 58.5 µM (inactive); with BT-549 it was > 77.4 µM (inactive); in the assay with OVCAR-8, 34.4 µM (inactive); in the assay on LOX IMVI, 31.9 µM (inactive); in the assay on NCI/ADR-RES it was 33.5 µM (inactive); in the assay on CCRF-CEM, > 100 µM (inactive). Also, the GI50 in the assay with SNB-19 was 23.9 µM (inactive); in the assay on Malme-3M, > 74.1 µM (inactive); with ACHN it was 42.9 µM (inactive); with SK-MEL-2 it was 26.7 µM (inactive); with SN12C, 52.2 µM (inactive); in the assay with Hs-578T it was 28.3 µM (inactive). The figures for the GI50 with HOP-92 and in the assay with HCC 2998 were 9.25 µM (inactive) and > 79.6 µM (inactive), respectively.

For the molecule `O=c1[nH]c(=O)n(C2CC(O)C(CO)O2)cc1I` (stereo not given), the GI50 was > 100 µM (inactive) with NCI-H23; > 100 µM (inactive) in the assay on PC-3; > 100 µM (inactive) in the assay on HCT-116; > 100 µM (inactive) in the assay on U-251; > 60.7 µM (inactive) in the assay on NCI-H460; > 100 µM (inactive) with SK-MEL-28. The GI50 in the assay with MDA-MB-231 was > 100 µM (inactive); with BT-549, > 100 µM (inactive); with OVCAR-8, > 100 µM (inactive); in the assay with LOX IMVI it was > 87.1 µM (inactive); in the assay on NCI/ADR-RES it was > 100 µM (inactive); with CCRF-CEM, 17.5 µM (inactive). Moreover, the GI50 was > 100 µM (inactive) in the assay with SNB-19; > 100 µM (inactive) in the assay with Malme-3M; > 100 µM (inactive) in the assay on ACHN; > 100 µM (inactive) in the assay with SK-MEL-2; 89.9 µM (inactive) in the assay on SN12C; > 100 µM (inactive) in the assay with Hs-578T. Besides, the GI50 in the assay with HOP-92 was > 100 µM (inactive); with HCC 2998, > 82.6 µM (inactive).

For the origin of these results see ChEMBL document CHEMBL1201862, “PubChem BioAssay data set” (2004).
